According to US10022377B2, “Method of treating hypertension” (Cipla Limited, priority 2015, dated 2018):

Legend:
[1] = system: rat monocrotaline (MCT) model of PAH; experiment: Pulmonary arterial hypertension efficacy model: monocrotaline rat; assay type: in vivo, Sprague-Dawley rats; conditions: in words
Method: Adult male Sprague-Dawley rats (287±4 g) were obtained from Charles River Laboratories (Raleigh, N.C.). Animals housed individually in a temperature/humidity controlled room with 12-hour light/dark cycles, had free access to water and food and were acclimated for one week prior to the study. Rats were randomly assigned to one of the experimental groups (n=10 per group). Rats in groups 1 and 2 served as healthy controls; the remaining rats were injected subcutaneously on Day 0 with 60 mg/kg body weight monocrotaline, the toxic alkaloid of Crotalaria spectabilis, (dissolved in DMSO at a concentration of 60 mg/ml, Sigma Aldrich, St. Louis, Mo.). On days 1-21, the rats were dosed via oral gavage (2 ml/kg) with vehicle (PBS), or the test compound—Anagrelide. Rats were weighed daily, and the dosages of test compound adjusted appropriately.
Monocrotaline (MCT) is an 11-membered macrocyclic pyrrolizidine plant alkaloid. A single SQ injection into rats results in hepatic generation of toxic metabolite—MCT pyrrole. Phase II metabolism of MCT is through glutathione conjugation. Reactive metabolite is transported to lungs, injuring pulmonary vasculature.

platelets [2] = conditions: preclinical pharmacology data; in words; cited from earlier work
[3] = system: rats with monocrotaline induced pulmonary arterial hypertension; experiment: Hemodynamic evaluation in anesthetized rats treated with monocrotaline to induce pulmonary arterial hypertension; assay type: in vivo, Sprague-Dawley rats; conditions: for HR / HW/BW / Heart Wt / LV Wt / Lung Wt / MAP / Mean PAP / RV Wt / RV/BW / Systolic PAP / RV/LV + S: 28 days, MCT rats, mean ± SEM; for RV/LV + S: Fulton's Index
Method: The effects of sildenafil and anagrelide were evaluated in rats with monocrotaline induced pulmonary arterial hypertension. Male Sprague-Dawley rats were orally administered vehicle (variable, see below), anagrelide (1 mg/kg given once daily for 28 days or 2 mg/kg total daily dose, divided into a BID regimen given every day for 28 days starting on Day 1), or sildenafil (30 mg/kg, administered twice daily) (n=10 in each group). Rats received a single injection of monocrotaline (60 mg/kg, s.c.) on Study Day 1. On the twenty-eighth day following monocrotaline dosing, the rats were anesthetized with ketamine/xylazine for terminal monitoring of pulmonary and systemic arterial pressures along with heart rate. The study design for the test article and vehicle administrations are detailed below: […]

[4] = metabolite versus anagrelide; cited from earlier work
platelets [5] = conditions: metabolite; in words; cited from earlier work
[6] = daily oral doses for three weeks
[7] = 2 mg/kg/day given BID, after 28 days, in words
[8] = Anagrelide 1 mg/kg once daily oral
[9] = Anagrelide 2 mg/kg/day bid oral
[10] = Sildenafil 60 mg/kg/day bid oral

Structure (SMILES): O=C1CN2Cc3c(ccc(Cl)c3Cl)N=C2N1 [Anagrelide, anagrelide]
- development of PAH ([1]; daily oral doses for three weeks after MCT 60 mg/kg s.c.): prevent the development of PAH
- hypertrophy of the right ventricle [1, 6]: prevents
- monocrotaline (MCT)-induced elevations in pressure in the pulmonary arterial circuit [1, 6]: prevents
- effect on other cellular components of the blood (platelets [2]): no significant effect
- inhibition of platelet aggregation (platelets [2]): potent inhibitor
- mean pulmonary arterial pressure compared to the vehicle group [3, 7]: differences
- systolic pulmonary arterial pressure compared to the vehicle group [3, 7]: reduction
- HR [3, 8]: 325 ± 28 bpm
- HW/BW [3, 8]: 4.34 ± 0.45
- Heart Wt [3, 8]: 1.37 ± 0.03 g
- LV Wt [3, 8]: 0.76 ± 0.01 g
- Lung Wt [3, 8]: 2.10 ± 0.19 g
- MAP [3, 8]: 59 ± 5 mm Hg
- Mean PAP [3, 8]: 36 ± 2 mm Hg
- RV Wt [3, 8]: 0.47 ± 0.01 g
- RV/BW [3, 8]: 1.49 ± 0.16
- Systolic PAP [3, 8]: 44 ± 2 mm Hg
- HR [3, 9]: 258 ± 10 bpm
- HW/BW [3, 9]: 3.98 ± 0.24
- Heart Wt [3, 9]: 1.21 ± 0.04 g
- LV Wt [3, 9]: 0.69 ± 0.02 g
- Lung Wt [3, 9]: 2.21 ± 0.07 g
- MAP [3, 9]: 52 ± 6 mm Hg
- Mean PAP [3, 9]: 36 ± 2 mm Hg
- RV Wt [3, 9]: 0.41 ± 0.02 g
- RV/BW [3, 9]: 1.35 ± 0.12
- Systolic PAP [3, 9]: 43 ± 4 mm Hg
- RV/LV + S [3, 8]: 0.62 ± 0.01
- RV/LV + S [3, 9]: 0.59 ± 0.04
- hypertrophy when correcting RV (wt) by body weight ([3]; at either dose, in words): decrease in hypertrophy
- Mean arterial pressure compared to vehicle ([3]; in words): lower
- right ventricular hypertrophy (RV/LV+S, Fulton's Index) compared to vehicle ([3]; in words): no change

Structure (SMILES): O=C1NC2=Nc3ccc(Cl)c(Cl)c3CN2C1O (stereo not drawn) [BCH24426, 3-hydroxy anagrelide]
- Exposure as measured by plasma AUC compared to anagrelide [4]: approximately 2 fold

Structure (SMILES): NC1=Nc2ccc(Cl)c(Cl)c2CN1 [RL603, 5,6-dichloro-3,4-dihydroquinazolin-2-ylamine]
- participation in the overall effect of AGRYLIN (platelets [5]): does not participate

Structure (SMILES): CCCc1nn(C)c2c(=O)[nH]c(-c3cc(S(=O)(=O)N4CCN(C)CC4)ccc3OCC)nc12 [Sildenafil]
- RV/LV + S [3, 10]: 0.51 ± 0.03
- HR [3, 10]: 278 ± 21 bpm
- HW/BW [3, 10]: 3.89 ± 0.17
- Heart Wt [3, 10]: 1.24 ± 0.02 g
- LV Wt [3, 10]: 0.74 ± 0.02 g
- Lung Wt [3, 10]: 2.36 ± 0.13 g
- MAP [3, 10]: 69 ± 5 mm Hg
- Mean PAP [3, 10]: 38± 6 mm Hg
- RV Wt [3, 10]: 0.38 ± 0.02 g
- RV/BW [3, 10]: 1.19 ± 0.09
- Systolic PAP [3, 10]: 46 ± 7 mm Hg
